The target in experiment [1] is T1, recombinant human B1 receptors (Homo sapiens, UniProt P46663).
T1 construct: host or cells: CHO (CHO-B1)
T1 sequence (P46663 1-353): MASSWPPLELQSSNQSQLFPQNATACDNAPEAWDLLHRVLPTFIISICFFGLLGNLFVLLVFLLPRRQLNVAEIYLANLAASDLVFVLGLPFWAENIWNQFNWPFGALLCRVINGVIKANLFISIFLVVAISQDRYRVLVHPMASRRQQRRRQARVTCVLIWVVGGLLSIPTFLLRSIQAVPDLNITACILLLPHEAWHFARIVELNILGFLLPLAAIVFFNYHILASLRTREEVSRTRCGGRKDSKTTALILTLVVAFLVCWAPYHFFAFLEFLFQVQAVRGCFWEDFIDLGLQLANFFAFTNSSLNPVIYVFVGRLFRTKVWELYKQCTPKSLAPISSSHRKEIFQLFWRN
The experiment can be described thus: Functional assay: antagonist potency by cytosolic calcium measurement in CHO-B1 cells (agonist LysDABK). Format: cell-based. As to conditions: CHO-B1 cells, LysDABK at EC80, fluo-4 [Ca2+]i; read-out: B1 func. How it is done:
Assessment of Antagonist Potency at B1 and B2 Receptors In Vitro by Measurement of Cytosolic Calcium Ion Concentration with a Plate Reader Fluorimeter in Cells Expressing Recombinant Human B1 or B2 Receptors
Chinese hamster ovary (CHO) cells stably expressing recombinant human B1 (CHO-B1, Euroscreen) or B2 (CHO-B2, Perkin-Elmer) receptors were cultured in Dulbecco's Modified Eagle's Medium (DMEM) containing 10% Fetal Calf Serum (FCS), 100 U/ml penicillin, 0.1 mg/ml streptomycin, 0.25 μg/ml amphotericin B, 1% Minimum Essential Medium Eagle (MEM), non essential amino acid solution, 600 μg/ml G418, 1% pyruvate (for the B2 cell line). Cells were kept at 37° C. in a humidified incubator in an atmosphere of 5% CO2/95% air and were passaged 1:4 three times a week. Cells were plated at 1.5-2.5×10^4 cell/well on standard 96-well microplates, measurements of cytosolic calcium ion concentration ([Ca^2+]i) were carried out 1-2 days after cell plating.
Measurements of [Ca^2+]i were carried out on CHO-B1 and CHO-B2 cells stably expressing human B1 and B2 receptors, respectively. Cells were grown in standard 96-well microplates and before the measurement were loaded with a fluorescent Ca^2+-sensitive dye, fluo-4/AM (2 μM): after removing the culture medium the dye was added to the cells (dissolved in assay buffer: 145 mM NaCl, 5 mM KCl, 2 mM MgCl2, 2 mM CaCl2, 10 mM HEPES, 20 mM D-glucose, 2 mM probenecid, 100 μl/well) and cells were incubated at 37° C. in a humidified incubator in an atmosphere of 5% CO2/95% air for 40-120 min. To stop dye loading cells were washed twice with assay buffer. After washing, various concentrations of the test compounds (diluted in extracellular medium from a DMSO stock solution, final DMSO concentration was <0.1%) or buffer were added to each well depending on the experimental setup. After incubation at 37° C. for 20-25 min. baseline and agonist-evoked changes of [Ca^2+]i were measured column by column with a plate reader fluorimeter (Fluoroskan Ascent, Labsystems). Excitation and detection of emission was carried out from the bottom of the plate. Filters used for Fluo-4: excitation filter—485 nm, emission filter—538 nm. The whole measurement process was performed at 37° C. and was controlled by custom software. Inhibitory potency of the test compounds was assessed by measuring the reduction in the agonist-evoked [Ca^2+]i-elevation in the presence of different concentrations of the compounds. The agonists were LysDABK for CHO-B1, and bradykinin for CHO-B2 cells. Agonists were applied at an EC80 concentration, the EC80-values were derived from daily determined dose-response curves. Fluorescence data were expressed as ΔF/F (fluorescence change normalized to baseline). All treatments on a single plate were measured in multiple wells. Data from all wells with the same treatment were averaged and the average values were used for analysis. Inhibitory potency of a compound at a single concentration point was expressed as percent inhibition of the control agonist response. Sigmoidal concentration-inhibition curves were fitted to the data (derived from at least three independent experiments) and IC50-values were determined as the concentration that produces half of the maximal inhibition caused by the compound.

Experiment [2] concerns the target T2, human recombinant bradykinin B1 receptor (Homo sapiens, UniProt P46663).
T2 construct: purchased Euroscreen ES-091; host or cells: CHO cells
T2 sequence (P46663 1-353): T1 sequence (P46663 1-353)
The experiment is described as follows: Human recombinant bradykinin B1 receptor binding. As to conditions: CHO cell membranes, [3H]-[Des-Arg10] Kallidin radioligand; read-out: B1 binding. How it is done: Receptor Binding Assays 1. Human Recombinant Bradykinin B1 Receptor Binding
Binding assays were carried out on human recombinant bradykinin) receptors (expressed in CHO cells) according to the Euroscreen Technical Data Sheet (Cat.No.:ES-091). 20 μg protein/tube was incubated with [3,4-prolyl-3,4-^3H(N)]-[Des-Arg^10] Kallidin as radioligand. Non specific binding was determined in the presence of 10 μM Lys-des-Arg^9-Bradykinin. The final incubation volume was 250 μl. Samples were incubated for 15 min. at 25° C. then were rapidly vacuum filtered through GF/B filters presoaked for at least 1 h in 0.5% PEI. Radioactivity was determined by liquid scintillation spectroscopy.

Turning to `O=C(NCC(=O)N1CCN(CCN2CCCC2)CC1)c1ccc(S(=O)(=O)Nc2ccccc2Oc2ccc(Cl)cc2Cl)cc1` [Example 1.1, 4-[2-(2,4-Dichloro-phenoxy)-phenylsulfamoyl]-N-{2-oxo-2-[4-(2-pyrrolidin-1-yl-ethyl)-piperazin-1-yl]-ethyl}-benzamide], in experiment [1], the IC50 was less than 20 nM. The Ki in experiment [2] was less than 20 nM.

Turning to `CN(C)CCN1CCN(C(=O)CNC(=O)c2ccc(S(=O)(=O)Nc3ccccc3Oc3ccc(Cl)cc3Cl)cc2)CC1` [Example 1.2, 4-[2-(2,4-Dichloro-phenoxy)-phenylsulfamoyl]-N-{2-[4-(2-dimethylamino-ethyl)-piperazin-1-yl]-2-oxo-ethyl}-benzamide], the IC50 in experiment [1] was less than 20 nM. Moreover, the Ki in experiment [2] was less than 20 nM.

In the case of `CCN(CC)CCN1CCN(C(=O)CNC(=O)c2ccc(S(=O)(=O)Nc3ccccc3Oc3ccc(Cl)cc3Cl)cc2)CC1` [Example 1.3, 4-[2-(2,4-Dichloro-phenoxy)-phenylsulfamoyl]-N-{2-[4-(2-diethylamino-ethyl)-piperazin-1-yl]-2-oxo-ethyl}-benzamide], the IC50 in experiment [1] was less than 20 nM. Further, in experiment [2], the Ki was less than 20 nM.

Regarding `O=C(NCC(=O)N1CCN(CCCN2CCCC2)CC1)c1ccc(S(=O)(=O)Nc2ccccc2Oc2ccc(Cl)cc2Cl)cc1` [Example 1.4, 4-[2-(2,4-Dichloro-phenoxy)-phenylsulfamoyl]-N-{2-oxo-2-[4-(3-pyrrolidin-1-yl-propyl)-piperazin-1-yl]-ethyl}-benzamide], the IC50 in experiment [1] is less than 20 nM. Moreover, the Ki in experiment [2] is less than 20 nM.

`CN1CCCC(CN2CCN(C(=O)CNC(=O)c3ccc(S(=O)(=O)Nc4ccccc4Oc4ccc(Cl)cc4Cl)cc3)CC2)C1` (stereo not drawn) [Example 1.5, 4-[2-(2,4-Dichloro-phenoxy)-phenylsulfamoyl]-N-{2-[4-(1-methyl-piperidin-3-ylmethyl)-piperazin-1-yl]-2-oxo-ethyl}-benzamide]: the IC50 in experiment [1] was less than 20 nM. Also, the Ki in experiment [2] is less than 20 nM.

Consider `O=C(NCC(=O)N1CCC(CCN2CCCC2)CC1)c1ccc(S(=O)(=O)Nc2ccccc2Oc2ccc(Cl)cc2Cl)cc1` [Example 1.6, 4-[2-(2,4-Dichloro-phenoxy)-phenylsulfamoyl]-N-{2-oxo-2-[4-(2-pyrrolidin-1-yl-ethyl)-piperidin-1-yl]-ethyl}-benzamide], for which, in experiment [1], the IC50 is less than 20 nM. Also, in experiment [2], the Ki is less than 20 nM.

Regarding `O=C(NCC(=O)N1CCN(c2ncccn2)CC1)c1ccc(S(=O)(=O)Nc2ccccc2Oc2ccc(Cl)cc2Cl)cc1` [Example 1.7, 4-[2-(2,4-Dichloro-phenoxy)-phenylsulfamoyl]-N-[2-oxo-2-(4-pyrimidin-2-yl-piperazin-1-yl)-ethyl]-benzamide], in experiment [1], the IC50 was less than 20 nM. The Ki in experiment [2] is less than 20 nM.

For `O=C(NCC(=O)N1CCCN(CCCN2CCOCC2)CC1)c1ccc(S(=O)(=O)Nc2ccccc2Oc2ccc(Cl)cc2Cl)cc1` [Example 1.8, 4-[2-(2,4-Dichloro-phenoxy)-phenylsulfamoyl]-N-{2-[4-(3-morpholin-4-yl-propyl)-[1,4]diazepan-1-yl]-2-oxo-ethyl}-benzamide], in experiment [1], the IC50 was less than 20 nM. Moreover, in experiment [2], the Ki was less than 20 nM.

In the case of `O=C(NCC(=O)N1CCN(CCCN2CCCCC2)CC1)c1ccc(S(=O)(=O)Nc2ccccc2Oc2ccc(Cl)cc2Cl)cc1` [Example 1.9, 4-[2-(2,4-Dichloro-phenoxy)-phenylsulfamoyl]-N-{2-oxo-2-[4-(3-piperidin-1-yl-propyl)-piperazin-1-yl]-ethyl}-benzamide], the IC50 in experiment [1] is less than 20 nM. Also, the Ki in experiment [2] was less than 20 nM.

As to `CN(C)CCCN1CCN(C(=O)CNC(=O)c2ccc(S(=O)(=O)Nc3ccccc3Oc3ccc(Cl)cc3Cl)cc2)CC1` [Example 1.10, 4-[2-(2,4-Dichloro-phenoxy)-phenylsulfamoyl]-N-{2-[4-(3-dimethylamino-propyl)-piperazin-1-yl]-2-oxo-ethyl}-benzamide], in experiment [1], the IC50 was less than 20 nM. In addition, the Ki in experiment [2] is less than 20 nM.

For `O=C(NCC(=O)N1CCCN(CCCN2CCCC2)CC1)c1ccc(S(=O)(=O)Nc2ccccc2Oc2ccc(Cl)cc2Cl)cc1` [Example 1.11, 4-[2-(2,4-Dichloro-phenoxy)-phenylsulfamoyl]-N-{2-oxo-2-[4-(3-pyrrolidin-1-yl-propyl)-[1,4]diazepan-1-yl]-ethyl}-benzamide], in experiment [1], the IC50 was less than 20 nM. Also, the Ki in experiment [2] is less than 20 nM.

For `O=C(NCC(=O)N1CCN(CCCN2CCOCC2)CC1)c1ccc(S(=O)(=O)Nc2ccccc2Oc2ccc(Cl)cc2Cl)cc1` [Example 1.12, 4-[2-(2,4-Dichloro-phenoxy)-phenylsulfamoyl]-N-{2-[4-(3-morpholin-4-yl-propyl)-piperazin-1-yl]-2-oxo-ethyl}-benzamide], in experiment [1], the IC50 was less than 20 nM. The Ki in experiment [2] is less than 20 nM.

With `O=C(NCC(=O)N1CCN(CCN2CCCCC2)CC1)c1ccc(S(=O)(=O)Nc2ccccc2Oc2ccc(Cl)cc2Cl)cc1` [Example 1.13, 4-[2-(2,4-Dichloro-phenoxy)-phenylsulfamoyl]-N-{2-oxo-2-[4-(2-piperidin-1-yl-ethyl)-piperazin-1-yl]-ethyl}-benzamide], in experiment [1], the IC50 was less than 20 nM. Also, the Ki in experiment [2] is less than 20 nM.

`O=C(NCC(=O)N1CCC(N2CCCC2)CC1)c1ccc(S(=O)(=O)Nc2ccccc2Oc2ccc(Cl)cc2Cl)cc1` [Example 1.21, 4-[2-(2,4-Dichloro-phenoxy)-phenylsulfamoyl]-N-[2-oxo-2-(4-pyrrolidin-1-yl-piperidin-1-yl)-ethyl]-benzamide]: the IC50 in experiment [1] was less than 20 nM. For the same molecule, the Ki in experiment [2] is less than 20 nM.

In the case of `O=C(NCC(=O)N1CCC(O)CC1)c1ccc(S(=O)(=O)Nc2ccccc2Oc2ccc(Cl)cc2Cl)cc1` [Example 1.22, 4-[2-(2,4-Dichloro-phenoxy)-phenylsulfamoyl]-N-[2-(4-hydroxy-piperidin-1-yl)-2-oxo-ethyl]-benzamide], the IC50 in experiment [1] is less than 20 nM. Further, the Ki in experiment [2] was less than 20 nM.

As to `O=C(NCC(=O)N1CCN(CCN2CCCC2)CC1)c1ccc(S(=O)(=O)Nc2ccccc2Oc2ccccc2)cc1` [Example 2.2, N-{2-Oxo-2-[4-(2-pyrrolidin-1-yl-ethyl)-piperazin-1-yl]-ethyl}-4-(2-phenoxy-phenylsulfamoyl)-benzamide], in experiment [1], the IC50 was less than 20 nM. For the same molecule, in experiment [2], the Ki was less than 20 nM.

Consider `CN(C)CCN1CCN(C(=O)CNC(=O)c2ccc(S(=O)(=O)Nc3ccccc3Oc3ccccc3)cc2)CC1` [Example 2.3, N-{2-[4-(2-Dimethylamino-ethyl)-piperazin-1-yl]-2-oxo-ethyl}-4-(2-phenoxy-phenylsulfamoyl)-benzamide], for which the IC50 in experiment [1] was less than 20 nM. Further, the Ki in experiment [2] was less than 20 nM.

In the case of `CCN(CC)CCN1CCN(C(=O)CNC(=O)c2ccc(S(=O)(=O)Nc3ccccc3Oc3ccccc3)cc2)CC1` [Example 2.4, N-{2-[4-(2-Diethylamino-ethyl)-piperazin-1-yl]-2-oxo-ethyl}-4-(2-phenoxy-phenylsulfamoyl)-benzamide], in experiment [1], the IC50 was less than 20 nM. In experiment [2], the Ki is less than 20 nM.

For the origin of these results see US8481527B2, “Benzamide derivatives as bradykinin antagonists” (Richter Gedeon Nyrt., priority 2006, dated 2013).
